Assay results reported in patent US11674962B2, “Therapeutic and diagnostic methods for cancer” (Genentech, Inc., priority 2017, dated 2023).

What was measured:
[1] = test system: locally advanced or metastatic non-small cell lung cancer (NSCLC); test: OAK phase III clinical trial (NCT02008227): atezolizumab vs docetaxel, outcomes by bTMB score and PD-L1 IHC; assay type: in vivo, human; settings: OAK
Procedure: (§1) A blood-based assay was used to evaluate the association between clinical response to treatment with atezolizumab (MPDL3280A) and blood tumor mutational burden (bTMB) score in patients with non-small cell lung cancer (NSCLC) enrolled in two clinical trials, a phase II clinical trial, POPLAR (Clinical Trial ID No.: NCT01903993), and a phase III clinical trial, OAK (Clinical Trial ID No.: NCT02008227), in which atezolizumab was administered as a monotherapy.
(§2) Pre-treatment blood samples from patients with NSCLC who were enrolled in the POPLAR and/or the OAK studies, in which atezolizumab was administered as a monotherapy, were evaluated for bTMB score and/or maximum somatic allele frequency (MSAF).
The OAK (Clinical Trial ID No.: NCT02008227) patient population evaluated for bTMB score consisted of 583 patients. Patients were eligible for enrollment in the OAK study if they had locally advanced or metastatic (e.g., stage IIIB, stage IV, or recurrent) NSCLC; disease progression during or following treatment with a prior platinum-containing regimen for locally advanced, unresectable/inoperable, or metastatic NSCLC, or disease recurrence within 6 months of treatment with a platinum-based adjuvant/neoadjuvant regimen; measurable disease, as defined by RECIST v1.1; and an ECOG performance status of 0 or 1. Participants were randomized to receive either atezolizumab at a dose of 1200 mg intravenously every three weeks or docetaxel 75 mg per square meter (mg/m^2) intravenously every three weeks. Treatment with atezolizumab could be continued as long as participants were experiencing clinical benefit, i.e., in the absence of unacceptable toxicity or symptomatic deterioration attributed to disease progression.
(§3) Analysis of bTMB was performed retrospectively. Progression-free survival (PFS) was defined as the time between date of randomization and date of first documented disease progression as assessed by the investigator using RECIST v.1.1 or death from any cause, whichever occurred first. Overall survival (OS) was defined as the time between the date of randomization until death due to any cause. Treatment arms were compared for OS and PFS individually using a univariate Cox regression model without stratification in the biomarker evaluable-population (BEP) and their subgroups or using a stratified (by randomization stratification factors) Cox model in the ITT population. No multiplicity correction was applied to p-values or confidence intervals (CI). Kaplan-Meier methodology was used to estimate median OS and PFS and construct survival curves.
In the OAK ITT population (N=850), 797 samples were available for analysis. Of these samples, 13 were removed for sample contamination >1%; 42 were removed for median exon coverage <800×; and 100 were removed for low MSAF<1%.
The OAK BEP (N=642) included 59 patients with EGFR mutation or ALK rearrangement, and 583 without known alterations.
(§4) To identify somatic mutations and calculate a bTMB score, whole blood samples obtained from each patient (collected in EDTA or Streck tubes) were processed through a series of spins to isolate plasma, from which cell free DNA (cfDNA) was extracted for sequencing analysis. Specifically, at least 20 ng purified cfDNA was used for library construction. Next-generation sequencing libraries using fragment barcodes and hybrid capture were constructed to analyze and sequence a pre-determined set of 394 genes that covered approximately 1.125 Mb of the exome. Specifically, purified libraries were hybrid captured using a 394-gene bait set and then further purified, pooled and loaded on an ILLUMINA® HISEQ® 4000 sequencing system. Sequenced libraries were aligned and sorted. In order to accurately call variants at low allele frequencies and minimize artifacts from sequencing, PCR, or DNA damage-related errors, sequenced libraries were processed by a cfDNA computational pipeline that corrected errors via the use of fragment barcodes. […]

[2] = test system: locally advanced or metastatic non-small cell lung cancer (NSCLC); test: POPLAR phase II clinical trial (NCT01903993): atezolizumab vs docetaxel, outcomes by bTMB score; assay type: in vivo, human; settings: bTMB≥16, per treatment arm
Procedure: as §1, §2
The POPLAR (Clinical Trial ID No.: NCT01903993) patient population evaluated for bTMB score consisted of 273 patients. Patients were eligible for enrollment in the POPLAR study if they had locally advanced or metastatic (e.g., stage IIIB, stage IV, or recurrent) non-small cell lung cancer (NSCLC); disease progression during or following treatment with a prior platinum-containing regimen for locally advanced, unresectable/inoperable, or metastatic NSCLC, or disease recurrence within 6 months of treatment with a platinum-based adjuvant/neoadjuvant regimen; measurable disease, as defined by RECIST v1.1; and an Eastern Cooperative Oncology Group (ECOG) performance status of 0 or 1. Participants were randomized to receive either atezolizumab at a dose of 1200 mg intravenously every three weeks or docetaxel 75 mg per meter square (mg/m^2) intravenously every three weeks. Treatment with atezolizumab could be continued as long as participants were experiencing clinical benefit, i.e., in the absence of unacceptable toxicity or symptomatic deterioration attributed to disease progression.
as §3
In the POPLAR ITT population (N=287), 273 samples were available for analysis. Of these, 6 were removed for sample contamination >1%; 9 were removed for median exon coverage <800×; and 47 were removed for low MSAF<1%.
The POPLAR BEP (N=211) includes 15 patients with EGFR mutation or ALK rearrangement, and 196 without known alterations.
as §4, with “sorted.” for “sorted. In order to accurately call variants at low allele frequencies and minimize artifacts from sequencing, PCR, or DNA damage-related errors, sequenced libraries were processed by a cfDNA computational pipeline that corrected errors via the use of fragment barcodes.”

CC(=O)O[C@@]12CO[C@@H]1C[C@H](O)[C@@]1(C)C(=O)[C@H](O)C3=C(C)[C@@H](OC(=O)[C@H](O)[C@@H](NC(=O)OC(C)(C)C)c4ccccc4)C[C@@](O)([C@@H](OC(=O)c4ccccc4)[C@H]21)C3(C)C [docetaxel]
median OS ([1]; bTMB≥16, per treatment arm): 6.8 months | best overall response rate ([1]; bTMB≥16 patients, per treatment arm): 10% | median OS [2]: 7.4 months | median PFS [2]: 2.9 months
